Measurements from paper PMC6906348 (Therapeutic Advances in Medical Oncology, 2019).

Test system: patients with advanced HCC
Test: Safety: adverse events
Format: in vivo, human
Details: for Abdominal pain (AE regardless of study drug relationship) / Acute kidney injury (AE regardless of study drug relationship) / Anemia (AE regardless of study drug relationship) / Ascites (AE regardless of study drug relationship) / Blood bilirubin increased (AE regardless of study drug relationship) / Blood creatinine increased (AE regardless of study drug relationship) / Constipation (AE regardless of study drug relationship) / Decreased appetite (AE regardless of study drug relationship) / Diarrhea (AE regardless of study drug relationship) / Fatigue (AE regardless of study drug relationship) / Hyperbilirubinemia (AE regardless of study drug relationship) / Hypoalbuminemia (AE regardless of study drug relationship) / Insomnia (AE regardless of study drug relationship) / Leukopenia (AE regardless of study drug relationship) / Nausea (AE regardless of study drug relationship) / Number of patients with at least one event (AE regardless of study drug relationship) / Peripheral edema (AE regardless of study drug relationship) / Platelet count decreased (AE regardless of study drug relationship) / Pyrexia (AE regardless of study drug relationship) / Vomiting (AE regardless of study drug relationship) / Weight decreased (AE regardless of study drug relationship) / ALT increased (AE regardless of study drug relationship) / AST increased (AE regardless of study drug relationship): patients n (%)
[1] = 600 mg capsule BID n = 27, All grades
[2] = 600 mg capsule BID n = 27, Grades 3/4
[3] = All patients n = 38, All grades
[4] = All patients n = 38, Grades 3/4
[5] = all patients (n = 38), all grades

SMILES: CNC(=O)c1ccc(-c2cnc3ncc(Cc4ccc5ncccc5c4)n3n2)cc1F [capmatinib]
- Abdominal pain (AE regardless of study drug relationship) [1]: 3 (11)
- Acute kidney injury (AE regardless of study drug relationship) [1]: 2 (7)
- Anemia (AE regardless of study drug relationship) [1]: 5 (19)
- Ascites (AE regardless of study drug relationship) [1]: 4 (15)
- Blood bilirubin increased (AE regardless of study drug relationship) [1]: 7 (26)
- Blood creatinine increased (AE regardless of study drug relationship) [1]: 7 (26)
- Constipation (AE regardless of study drug relationship) [1]: 6 (22)
- Decreased appetite (AE regardless of study drug relationship) [1]: 9 (33)
- Diarrhea (AE regardless of study drug relationship) [1]: 8 (30)
- Fatigue (AE regardless of study drug relationship) [1]: 6 (22)
- Hyperbilirubinemia (AE regardless of study drug relationship) [1]: 4 (15)
- Hypoalbuminemia (AE regardless of study drug relationship) [1]: 6 (22)
- Insomnia (AE regardless of study drug relationship) [1]: 5 (19)
- Leukopenia (AE regardless of study drug relationship) [1]: 4 (15)
- Nausea (AE regardless of study drug relationship) [1]: 9 (33)
- Number of patients with at least one event (AE regardless of study drug relationship) [1]: 27 (100)
- Peripheral edema (AE regardless of study drug relationship) [1]: 4 (15)
- Platelet count decreased (AE regardless of study drug relationship) [1]: 4 (15)
- Pyrexia (AE regardless of study drug relationship) [1]: 5 (19)
- Vomiting (AE regardless of study drug relationship) [1]: 9 (33)
- Weight decreased (AE regardless of study drug relationship) [1]: 2 (7)
- ALT increased (AE regardless of study drug relationship) [2]: 1 (4)
- AST increased (AE regardless of study drug relationship) [2]: 8 (30)
- Abdominal pain (AE regardless of study drug relationship) [2]: 1 (4)
- Acute kidney injury (AE regardless of study drug relationship) [2]: 1 (4)
- Anemia (AE regardless of study drug relationship) [2]: 1 (4)
- Ascites (AE regardless of study drug relationship) [2]: 1 (4)
- Blood bilirubin increased (AE regardless of study drug relationship) [2]: 5 (19)
- Blood creatinine increased (AE regardless of study drug relationship) [2]: 1 (4)
- Constipation (AE regardless of study drug relationship) [2]: 0
- Decreased appetite (AE regardless of study drug relationship) [2]: 1 (4)
- Diarrhea (AE regardless of study drug relationship) [2]: 0
- Fatigue (AE regardless of study drug relationship) [2]: 0
- Hyperbilirubinemia (AE regardless of study drug relationship) [2]: 3 (11)
- Hypoalbuminemia (AE regardless of study drug relationship) [2]: 0
- Insomnia (AE regardless of study drug relationship) [2]: 0
- Leukopenia (AE regardless of study drug relationship) [2]: 0
- Nausea (AE regardless of study drug relationship) [2]: 1 (4)
- Number of patients with at least one event (AE regardless of study drug relationship) [2]: 19 (70)
- Peripheral edema (AE regardless of study drug relationship) [2]: 0
- Platelet count decreased (AE regardless of study drug relationship) [2]: 0
- Pyrexia (AE regardless of study drug relationship) [2]: 0
- Vomiting (AE regardless of study drug relationship) [2]: 1 (4)
- Weight decreased (AE regardless of study drug relationship) [2]: 0
- patients with at least 1 dose reduction due to AEs (7/38 patients): 18%
- ALT increased (AE regardless of study drug relationship) [3]: 7 (18)
- AST increased (AE regardless of study drug relationship) [3]: 12 (32)
- Abdominal pain (AE regardless of study drug relationship) [3]: 5 (13)
- Acute kidney injury (AE regardless of study drug relationship) [3]: 4 (11)
- Anemia (AE regardless of study drug relationship) [3]: 8 (21)
- Ascites (AE regardless of study drug relationship) [3]: 5 (13)
- Blood bilirubin increased (AE regardless of study drug relationship) [3]: 9 (24)
- Blood creatinine increased (AE regardless of study drug relationship) [3]: 10 (26)
- Constipation (AE regardless of study drug relationship) [3]: 9 (24)
- Decreased appetite (AE regardless of study drug relationship) [3]: 12 (32)
- Diarrhea (AE regardless of study drug relationship) [3]: 13 (34)
- Fatigue (AE regardless of study drug relationship) [3]: 10 (26)
- Hyperbilirubinemia (AE regardless of study drug relationship) [3]: 4 (11)
- Hypoalbuminemia (AE regardless of study drug relationship) [3]: 8 (21)
- Insomnia (AE regardless of study drug relationship) [3]: 7 (18)
- Leukopenia (AE regardless of study drug relationship) [3]: 4 (11)
- Nausea (AE regardless of study drug relationship) [3]: 16 (42)
- Number of patients with at least one event (AE regardless of study drug relationship) [3]: 38 (100)
- Peripheral edema (AE regardless of study drug relationship) [3]: 6 (16)
- Platelet count decreased (AE regardless of study drug relationship) [3]: 4 (11)
- Pyrexia (AE regardless of study drug relationship) [3]: 6 (16)
- Vomiting (AE regardless of study drug relationship) [3]: 14 (37)
- Weight decreased (AE regardless of study drug relationship) [3]: 4 (11)
- ALT increased (AE regardless of study drug relationship) [4]: 2 (5)
- AST increased (AE regardless of study drug relationship) [4]: 9 (24)
- Abdominal pain (AE regardless of study drug relationship) [4]: 1 (3)
- Acute kidney injury (AE regardless of study drug relationship) [4]: 2 (5)
- Anemia (AE regardless of study drug relationship) [4]: 3 (8)
- Ascites (AE regardless of study drug relationship) [4]: 1 (3)
- Blood bilirubin increased (AE regardless of study drug relationship) [4]: 6 (16)
- Blood creatinine increased (AE regardless of study drug relationship) [4]: 1 (3)
- Constipation (AE regardless of study drug relationship) [4]: 0
- Decreased appetite (AE regardless of study drug relationship) [4]: 1 (3)
- Diarrhea (AE regardless of study drug relationship) [4]: 1 (3)
- Fatigue (AE regardless of study drug relationship) [4]: 0
- Hyperbilirubinemia (AE regardless of study drug relationship) [4]: 3 (8)
- Hypoalbuminemia (AE regardless of study drug relationship) [4]: 1 (3)
- Insomnia (AE regardless of study drug relationship) [4]: 0
- Leukopenia (AE regardless of study drug relationship) [4]: 0
- Nausea (AE regardless of study drug relationship) [4]: 1 (3)
- Number of patients with at least one event (AE regardless of study drug relationship) [4]: 25 (66)
- Peripheral edema (AE regardless of study drug relationship) [4]: 0
- Platelet count decreased (AE regardless of study drug relationship) [4]: 0
- Pyrexia (AE regardless of study drug relationship) [4]: 0
- Vomiting (AE regardless of study drug relationship) [4]: 2 (5)
- Weight decreased (AE regardless of study drug relationship) [4]: 0
- diarrhea, AE regardless of causality [5]: 34%
- nausea, AE regardless of causality [5]: 42%
- vomiting, AE regardless of causality [5]: 37%
- patients with AEs that led to discontinuation of capmatinib (all patients (n = 38), nine patients): 24%
- tolerability (single agent, 600 mg BID capsules and 400 mg BID tablets): tolerable with a manageable safety profile
